From patent publication US20240383915A1, “OXAZEPINE COMPOUNDS AND USES THEREOF IN THE TREATMENT OF CANCER” (Genentech, Inc., priority 2021, published 2024)
pIC50: −log10 of the molar value.

Tests used:
KRas = KRas (Homo sapiens (Human), UniProt P01116); assay: KRas GDP HTRF (BODIPY-GDP exchange TR-FRET); format: biochemical
Procedure: KRAS Biochemical Assay—BODIPY-GDP Exchange TR-FRET. Biochemical compound potencies were assessed by evaluating inhibition of SOS1-mediated nucleotide exchange in KRAS G12D. The SOS1-promoted exchange of fluorescently-labeled GDP (BODIPY-GDP) was monitored by time-resolved fluorescence resonance energy transfer (TR-FRET). Compounds solubilized in DMSO were dispensed as concentration series into 384-well white assay plates. […] The reaction was initiated with the addition of 5 μL of 3 nM recombinant human SOS1 and 300 nM BODIPY-GDP in assay buffer. After a 60-minute incubation, the fluorescence was measured with excitation at 337 nm and emission at 490 and 520 nm. The TR-FRET ratio was determined as the fluorescence at 520 nm divided by the fluorescence at 490 nm multiplied by 10,000. […] The normalized TR-FRET results were plotted against compound concentration, and the data fit to a 4-parameter Hill equation to determine the IC50 values.

KRas(G12V) = KRas(G12V) (Homo sapiens (Human), UniProt P01116, G12V); assay: KRas(G12V) GDP HTRF (BODIPY-GDP exchange TR-FRET); format: biochemical
KRas(G12V), sequence (P01116-2 other isoform, or with tags, fused parts or gaps G12V): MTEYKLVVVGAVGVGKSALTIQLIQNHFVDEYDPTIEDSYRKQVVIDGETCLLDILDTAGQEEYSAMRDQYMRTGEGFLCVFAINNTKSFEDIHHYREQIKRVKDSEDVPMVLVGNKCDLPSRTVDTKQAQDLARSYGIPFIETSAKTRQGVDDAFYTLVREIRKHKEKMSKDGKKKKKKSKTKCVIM

KRas, sequence (P01116-2 other isoform, or with tags, fused parts or gaps): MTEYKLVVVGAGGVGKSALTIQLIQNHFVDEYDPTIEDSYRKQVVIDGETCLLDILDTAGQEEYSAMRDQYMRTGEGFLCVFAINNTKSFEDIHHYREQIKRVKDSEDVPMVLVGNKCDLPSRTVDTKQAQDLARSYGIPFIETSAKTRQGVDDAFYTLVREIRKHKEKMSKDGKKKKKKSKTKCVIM

Row | pIC50 (KRas) | pIC50 (KRas(G12V)) | Compound
1 | 8.92 | 9.43 | Cc1cc(N)nc(-c2c(Cl)c3c4c(ncnc4c2F)N([C@H](C)c2cccnc2N)CCO3)c1C(F)(F)F (atropisomer, axis not shown) [Example 53a, 6-((R)-4-((R)-1-(2-aminopyridin-3-yl)ethyl)-8-chloro-10-fluoro-5,6-dihydro-4H-[1,4]oxazepino[5,6,7-de]quinazolin-9-yl)-4-methyl-5-(trifluoromethyl)pyridin-2-amine]
2 | 5.54 | 6.22 | Cc1cc(N)nc(-c2c(Cl)c3c4c(ncnc4c2F)N([C@H](C)c2cccnc2N)CCO3)c1C(F)(F)F (atropisomer, axis not shown) [Example 53b, 6-((S)-4-((R)-1-(2-aminopyridin-3-yl)ethyl)-8-chloro-10-fluoro-5,6-dihydro-4H-[1,4]oxazepino[5,6,7-de]quinazolin-9-yl)-4-methyl-5-(trifluoromethyl)pyridin-2-amine]
3 | 6.84 | 7.92 | Cc1cc(N)nc(-c2c(Cl)c3c4c(nc(OC(C)(C)[C@@H]5CC(F)(F)CN5C)nc4c2F)N([C@H](C)c2cccnc2N)CCO3)c1C(F)(F)F (atropisomer, axis not shown) [Example 72, 6-((R)-4-((R)-1-(2-aminopyridin-3-yl)ethyl)-8-chloro-2-((2-((S)-4,4-difluoro-1-methylpyrrolidin-2-yl)propan-2-yl)oxy)-10-fluoro-5,6-dihydro-4H-[1,4]oxazepino[5,6,7-de]quinazolin-9-yl)-4-methyl-5-(trifluoromethyl)pyridin-2-amine]
4 | 9.78 | 10.05 | Cc1cc(N)nc(-c2c(Cl)c3c4c(nc(OC[C@@H]5CC(F)(F)CN5C)nc4c2F)N([C@H](C)c2ccnnc2N)CCO3)c1C(F)(F)F (atropisomer, axis not shown) [Example 85, 4-((R)-1-((R)-9-(6-amino-4-methyl-3-(trifluoromethyl)pyridin-2-yl)-8-chloro-2-(((S)-4,4-difluoro-1-methylpyrrolidin-2-yl)methoxy)-10-fluoro-5,6-dihydro-4H-[1,4]oxazepino[5,6,7-de]quinazolin-4-yl)ethyl)pyridazin-3-amine]
5 | 9.08 | 10.05 | Cc1cc(N)nc(-c2c(Cl)c3c4c(nc(OC[C@H](C)N5CCOCC5)nc4c2F)N([C@H](C)c2cccnc2N)CCO3)c1C(F)(F)F (atropisomer, axis not shown) [Example 95a, 6-((R)-4-((R)-1-(2-aminopyridin-3-yl)ethyl)-8-chloro-10-fluoro-2-((S)-2-morpholinopropoxy)-5,6-dihydro-4H-[1,4]oxazepino[5,6,7-de]quinazolin-9-yl)-4-methyl-5-(trifluoromethyl)pyridin-2-amine]
6 | 9.32 | 9.92 | Cc1cc(N)nc(-c2c(Cl)c3c4c(nc(OC[C@@H](C)N5CCOCC5)nc4c2F)N([C@H](C)c2cccnc2N)CCO3)c1C(F)(F)F (atropisomer, axis not shown) [Example 95b, 6-((R)-4-((R)-1-(2-aminopyridin-3-yl)ethyl)-8-chloro-10-fluoro-2-((R)-2-morpholinopropoxy)-5,6-dihydro-4H-[1,4]oxazepino[5,6,7-de]quinazolin-9-yl)-4-methyl-5-(trifluoromethyl)pyridin-2-amine]
7 | 9.52 | 10.10 | Cc1cc(N)nc(-c2c(Cl)c3c4c(nc(OC[C@@H]5COCCN5)nc4c2F)N([C@H](C)c2cccnc2N)CCO3)c1C(F)(F)F (atropisomer, axis not shown) [Example 96, 6-((R)-4-((R)-1-(2-aminopyridin-3-yl)ethyl)-8-chloro-10-fluoro-2-(((S)-morpholin-3-yl)methoxy)-5,6-dihydro-4H-[1,4]oxazepino[5,6,7-de]quinazolin-9-yl)-4-methyl-5-(trifluoromethyl)pyridin-2-amine]
8 | 9.44 | 10.10 | Cc1cc(N)nc(-c2c(Cl)c3c4c(nc(OC[C@H]5COCCN5)nc4c2F)N([C@H](C)c2cccnc2N)CCO3)c1C(F)(F)F (atropisomer, axis not shown) [Example 97, 6-((R)-4-((R)-1-(2-aminopyridin-3-yl)ethyl)-8-chloro-10-fluoro-2-(((R)-morpholin-3-yl)methoxy)-5,6-dihydro-4H-[1,4]oxazepino[5,6,7-de]quinazolin-9-yl)-4-methyl-5-(trifluoromethyl)pyridin-2-amine]
9 | 9.25 | 9.96 | Cc1cc(N)nc(-c2c(Cl)c3c4c(nc(OCC56C[C@@H](F)CN5C[C@H](F)C6)nc4c2F)N([C@H](C)c2cccnc2N)CCO3)c1C(F)(F)F (atropisomer, axis not shown) [Example 98a, 6-((R)-4-((R)-1-(2-aminopyridin-3-yl)ethyl)-8-chloro-2-(((2R,6R)-2,6-difluorotetrahydro-1H-pyrrolizin-7a(5H)-yl)methoxy)-10-fluoro-5,6-dihydro-4H-[1,4]oxazepino[5,6,7-de]quinazolin-9-yl)-4-methyl-5-(trifluoromethyl)pyridin-2-amine]
10 | 9.90 | 10.15 | Cc1cc(N)nc(-c2c(Cl)c3c4c(nc(OC[C@@H]5C[C@H]6COCCN65)nc4c2F)N([C@H](C)c2cccnc2N)CCO3)c1C(F)(F)F (atropisomer, axis not shown) [Example 99a, 6-((R)-2-(((6S,8S)-4-oxa-1-azabicyclo[4.2.0]octan-8-yl)methoxy)-4-((R)-1-(2-aminopyridin-3-yl)ethyl)-8-chloro-10-fluoro-5,6-dihydro-4H-[1,4]oxazepino[5,6,7-de]quinazolin-9-yl)-4-methyl-5-(trifluoromethyl)pyridin-2-amine]
11 | 10.13 | 10.10 | Cc1cc(N)nc(-c2c(Cl)c3c4c(nc(OC[C@H]5C[C@@H]6COCCN65)nc4c2F)N([C@H](C)c2cccnc2N)CCO3)c1C(F)(F)F (atropisomer, axis not shown) [Example 99b, 6-((R)-2-(((6R,8R)-4-oxa-1-azabicyclo[4.2.0]octan-8-yl)methoxy)-4-((R)-1-(2-aminopyridin-3-yl)ethyl)-8-chloro-10-fluoro-5,6-dihydro-4H-[1,4]oxazepino[5,6,7-de]quinazolin-9-yl)-4-methyl-5-(trifluoromethyl)pyridin-2-amine]
12 | 8.95 | – | Cc1cc(N)nc(-c2c(Cl)c3c4c(nc(OC[C@@H]5CCCN5CC(F)F)nc4c2F)N([C@H](C)c2cncnc2N)CCO3)c1C(F)(F)F (atropisomer, axis not shown) [Example 103a, 5-((R)-1-((R)-9-(6-amino-4-methyl-3-(trifluoromethyl)pyridin-2-yl)-8-chloro-2-(((S)-1-(2,2-difluoroethyl)pyrrolidin-2-yl)methoxy)-10-fluoro-5,6-dihydro-4H-[1,4]oxazepino[5,6,7-de]quinazolin-4-yl)ethyl)pyrimidin-4-amine]
13 | 8.54 | 9.47 | COCCN1CCC(Oc2nc3c4c(c(Cl)c(-c5nc(N)cc(C)c5C(F)(F)F)c(F)c4n2)OCCN3[C@H](C)c2cccnc2N)CC1 (atropisomer, axis not shown) [Example 126, 6-((R)-4-((R)-1-(2-aminopyridin-3-yl)ethyl)-8-chloro-10-fluoro-2-((1-(2-methoxyethyl)piperidin-4-yl)oxy)-5,6-dihydro-4H-[1,4]oxazepino[5,6,7-de]quinazolin-9-yl)-4-methyl-5-(trifluoromethyl)pyridin-2-amine]
14 | 10.05 | 10.15 | Cc1cc(N)nc(-c2c(Cl)c3c4c(nc(OC[C@@H]5CCCN5C)nc4c2F)N([C@H](C)c2cccnc2N)CCO3)c1C(F)(F)F (atropisomer, axis not shown) [Example 127, 6-((R)-4-((R)-1-(2-aminopyridin-3-yl)ethyl)-8-chloro-10-fluoro-2-(((S)-1-methylpyrrolidin-2-yl)methoxy)-5,6-dihydro-4H-[1,4]oxazepino[5,6,7-de]quinazolin-9-yl)-4-methyl-5-(trifluoromethyl)pyridin-2-amine]
15 | 9.83 | 10.05 | Cc1cc(N)nc(-c2c(Cl)c3c4c(nc(OC[C@]56CCCN5CCOC6)nc4c2F)N([C@H](C)c2cccnc2N)CCO3)c1C(F)(F)F (atropisomer, axis not shown) [Example 128a, 6-((R)-4-((R)-1-(2-aminopyridin-3-yl)ethyl)-8-chloro-10-fluoro-2-(((R)-tetrahydro-1H-pyrrolo[2,1-c][1,4]oxazin-8a(6H)-yl)methoxy)-5,6-dihydro-4H-[1,4]oxazepino[5,6,7-de]quinazolin-9-yl)-4-methyl-5-(trifluoromethyl)pyridin-2-amine]
16 | 9.33 | 9.72 | Cc1cc(N)nc(-c2c(Cl)c3c4c(nc(OC[C@@]56CCCN5CCOC6)nc4c2F)N([C@H](C)c2cccnc2N)CCO3)c1C(F)(F)F (atropisomer, axis not shown) [Example 128b, 6-((R)-4-((R)-1-(2-aminopyridin-3-yl)ethyl)-8-chloro-10-fluoro-2-(((S)-tetrahydro-1H-pyrrolo[2,1-c][1,4]oxazin-8a(6H)-yl)methoxy)-5,6-dihydro-4H-[1,4]oxazepino[5,6,7-de]quinazolin-9-yl)-4-methyl-5-(trifluoromethyl)pyridin-2-amine]
17 | 8.27 | 9.12 | Cc1cc(N)nc(-c2c(Cl)c3c4c(nc(OC[C@@H]5CCCN5CC(F)F)nc4c2F)N([C@H](C)c2nccnc2N)CCO3)c1C(F)(F)F (atropisomer, axis not shown) [Example 158a, 3-((R)-1-((R)-9-(6-amino-4-methyl-3-(trifluoromethyl)pyridin-2-yl)-8-chloro-2-(((S)-1-(2,2-difluoroethyl)pyrrolidin-2-yl)methoxy)-10-fluoro-5,6-dihydro-4H-[1,4]oxazepino[5,6,7-de]quinazolin-4-yl)ethyl)pyrazin-2-amine]
